Measurements: ChEMBL document CHEMBL3045008, “Toxicity, inheritance of fenpyroximate resistance, and detoxification-enzyme levels in a laboratory-selected fenpyroximate-resistant strain of Tetranychus urticae Koch (Acari: Tetranychidae)” (2011)

Key:
Type in all cases: functional
Tetranychus urticae [1] = test: Insecticidal activity against Tetranychus urticae FPY 14 (two-spotted spider mite) assessed as mortality at 26 +/- 2 degC with 60 +/- 5% RH for first 24 hr
Tetranychus urticae [2] = test: Insecticidal activity against Tetranychus urticae GSS (two-spotted spider mite) assessed as mortality at 26 +/- 2 degC with 60 +/- 5% RH for first 24 hr
Tetranychus urticae [3] = test: Resistant ratio, LC50 for Tetranychus urticae FPY 14 (two-spotted spider mite) to LC50 for Tetranychus urticae GSS

Compound | LC50 (Tetranychus urticae [1]) [mgAi/L] | LC50 (Tetranychus urticae [2]) [mgAi/L] | RatioLC50 (Tetranychus urticae [3]) | LC60 (Tetranychus urticae [1]) [mgAi/L] | LC90 (Tetranychus urticae [1]) [mgAi/L] | LC60 (Tetranychus urticae [2]) [mgAi/L] | LC90 (Tetranychus urticae [2]) [mgAi/L]
Cc1c(COC(=O)[C@@H]2[C@H](/C=C(\Cl)C(F)(F)F)C2(C)C)cccc1-c1ccccc1 (relative stereo) [BIFENTHRIN] | 12.77 | 54.53 | <1 |  |  |  | 
CC[C@H](C)[C@H]1O[C@]2(C=C[C@@H]1C)C[C@@H]1C[C@@H](C/C=C(\C)[C@@H](O[C@H]3C[C@H](OC)[C@@H](O[C@H]4C[C@H](OC)[C@@H](O)[C@H](C)O4)[C@H](C)O3)[C@@H](C)/C=C/C=C3\CO[C@@H]4[C@H](O)C(C)=C[C@@H](C(=O)O1)[C@]34O)O2.CO[C@H]1C[C@H](O[C@H]2[C@H](C)O[C@@H](O[C@@H]3/C(C)=C/C[C@@H]4C[C@@H](C[C@]5(C=C[C@H](C)[C@@H](C(C)C)O5)O4)OC(=O)[C@@H]4C=C(C)[C@@H](O)[C@H]5OC/C(=C\C=C\[C@@H]3C)[C@]54O)C[C@@H]2OC)O[C@@H](C)[C@@H]1O [ABAMECTIN] | 1.56 | 0.2 | 7.8 |  |  |  | 
Cc1ccc(/N=C/N(C)/C=N/c2ccc(C)cc2C)c(C)c1 [AMITRAZ] | 167.13 | 60.07 | 2.78 |  |  |  | 
CCOP(=S)(OCC)Oc1nc(Cl)c(Cl)cc1Cl [CHLORPYRIFOS] | 85.84 | 12.44 | 6.9 |  |  |  | 
Clc1ccccc1-c1nnc(-c2ccccc2Cl)nn1 [CLOFENTEZINE] | 68.52 | 14.32 | 4.78 |  |  |  | 
Cc1nn(C)c(Oc2ccccc2)c1/C=N/OCc1ccc(C(=O)OC(C)(C)C)cc1 [FENPYROXYMATE] |  |  |  | 319.1 | 1637.86 | 5.1 | 29.5
C#CCOS(=O)OC1CCCCC1Oc1ccc(C(C)(C)C)cc1 (configuration not stated) [PROPARGITE] | 482.52 | 75 | 6.43 |  |  |  | 
